Experimental data: patent USRE29244E, “Coccidiostats” (priority 1976, dated 1977)

System: Eimeria tenella
Assay: Eimeria tenella infection in laboratory chickens
Format: in vivo
Parameters: Average degree of infection: scale not given here
Conditions: for Average degree of infection: <2.5 significant; for Weight gain: uninfected control 100
Method: (A) Eimeria tanella infection in laboratory chickens
Test method.--This test utilizes ten chickens per drug group. Ten chickens are employed as a weight control and ten chickens as an infected control. The drug is given 48 hours in advance of the infection. One gm. of the test drug is mixed in a mechanical mixer with a sufficient amount of chicken feed to result in the desired dosage. The infection consists of approximately 200,000 oocysts given orally by pipette. The tests lasts for eleven days and then the surviving birds are autopsied and examined for gross lesions in the ceca. The test birds are rated according to the number of survivors and the number of cecal lesions. The results are expressed as average degree of infection (A.D.I.). An average degree of infection of less than 2.5 is considered significant.

CCC(C(=O)C(C)C(O)C(C)CCc1ccc(C)c(O)c1C(=O)O)C1OC(CC)(C2CCC(O)(CC)C(C)O2)CC1C (stereo not shown) [antibiotic X-537A]
Percent mortality (Test I, 0.00312% in feed): 0%
Average degree of infection (Test I, 0.00312% in feed): 2.2
Weight gain (Test I, 0.00312% in feed): 85%
Percent mortality (Test I, 0.00625% in feed): 0%
Average degree of infection (Test I, 0.00625% in feed): 0.4
Weight gain (Test I, 0.00625% in feed): 92%
Percent mortality (Test II, 0.001% in feed): 15%
Average degree of infection (Test II, 0.001% in feed): 2.8
Weight gain (Test II, 0.001% in feed): 80%
Percent mortality (Test II, 0.002% in feed): 15%
Average degree of infection (Test II, 0.002% in feed): 2.6
Weight gain (Test II, 0.002% in feed): 83%
Percent mortality (Test II, 0.003% in feed): 5%
Average degree of infection (Test II, 0.003% in feed): 2.2
Weight gain (Test II, 0.003% in feed): 85%
Percent mortality (Test II, 0.004% in feed): 15%
Average degree of infection (Test II, 0.004% in feed): 1.7
Weight gain (Test II, 0.004% in feed): 87%
Percent mortality (Test II, 0.005% in feed): 5%
Average degree of infection (Test II, 0.005% in feed): 0.8
Weight gain (Test II, 0.005% in feed): 94%
Percent mortality (Test II, 0.006% in feed): 0%
Average degree of infection (Test II, 0.006% in feed): 0.1
Weight gain (Test II, 0.006% in feed): 95%
Average degree of infection (Test III, 0.003% in feed): 1.7
Weight gain (Test III, 0.003% in feed): 79%
Average degree of infection (Test III, 0.004% in feed): 1.1
Weight gain (Test III, 0.004% in feed): 81%
Average degree of infection (Test III, 0.005% in feed): 0.5
Weight gain (Test III, 0.005% in feed): 98%
Average degree of infection (Test III, 0.006% in feed): 0.2
Weight gain (Test III, 0.006% in feed): 97%
Effectiveness in treatment of coccidiosis (at the preferred dosages illustrated): effective
Effect on conversion of feed to weight gain (used as a coccidiostat): does not substantially adversely affect
